Results taken from article PMC8929329, “The pharmaceutical excipient PEG400 affect the absorption of baicalein in Caco‐2 monolayer model by interacting with UDP‐glucuronosyltransferases and efflux transport proteins” (Pharmacology Research & Perspectives, 2022).
Where two headings read alike, the source gives them in different places.

Columns and labels:
Stability study in HBSS = type: physicochemical; conditions: 37°C, 2 h
Protocol: The test was carried out by measuring the content of B, BG, and B6G before and after keeping in the HBSS solution at 37°C for 2 h. The time interval was selected according to the permeation experiment. The differences between the contents of the three samples before or after the incubation were calculated and expressed as the percentage of B, BG, and B6G remaining.

[1] = Permeation experiments on Caco-2 cell monolayer (two-way transport); type: in vitro ADME, human; conditions: human, read-out: corrected apparent permeability (Pcorrected); for Papp at 120 min, 5 μM: baicalein 5 μM; for Papp at 120 min, 15 μM: baicalein 15 μM
Protocol: (§1) Cell culture was performed as previously described.[15] For transport experiments, Caco-2 cells from passage number 20-30 were seeded at a density of 2 × 10^5 cells per well on transwell plate (a solid insert for cell culture contains porous permeable polycarbonate membrane) with polycarbonate membranes using a blood-counting chamber (QIU JING®). A 0.5 ml of culture medium with cells was added to the apical side (AP) and 1.5 ml of blank culture medium was added to the basolateral side (BL). During the incubation period, the medium on the AP and BL sides were changed every 2 days in the first week, and every day after a week until the 21st day. The permeation of samples was assessed in both directions at different concentrations. This experiment assessed the influence of different concentrations (%, v/v) of PEG400 on the permeation process of B, BG, and […]. […] Caco-2 cell monolayers with qualified monolayer membrane integrity were used for drug permeability experiments. Aspirated and discarded the original culture medium in the transwell plate, added pre-warmed (37°C) HBSS to wash 3 times, put it in the incubator for the last time and incubated for 30 min. […] For the AP-BL permeability (absorptive transport study), add 0.5 ml of samples (dissolved in HBSS) to the apical side (AP) as a supply chamber, and add 1.5 ml of pre-warmed HBSS to the basolateral side (BL) as a receiving chamber. Alternatively, in the permeation direction of BL-AP compartment (secretive transport study), add 1.5 ml of samples (dissolved in HBSS) to the BL side as a supply chamber, and add 0.5 ml of pre-warmed HBSS to the AP side as a receiving chamber. After the above steps, put the transwell plate on the thermostatic oscillator (Changzhou Wanhe Instrument Manufacturing Co., Ltd.) at 60 r/min. And sample 100 μl from the receiving pool or 10 μl from the supply chamber at 30, 60, 90, and 120 min depending on the experiment, and make up the same volume of blank pre-warmed HBSS. The sample taken from the transwell plate was precipitated with the 100 μl of methanol to precipitate the protein. After centrifugation at 16 000g for 15 min at 4°C, 70 μl of the supernatant was taken. And the content was determined by UPLC-MS/MS method to calculate the apparent permeability coefficient (P app) and efflux ratio (ER). The P app and ER of Caco-2 monolayers was measured and calculated as Equations ((2), (3), (4)): (2) Papp=dQ/dt/AC0 Where ΔQ/Δt (ng/ml·s) is the rate of permeability (ng/ml·s for B, BG, […]); A is for the membrane area (1.12 cm^2); C 0 (ng/ml/for B, BG, […]) is the initial concentration of the sample in the supply chamber. The apparent permeability might need to be corrected because of the effect of the marked amount of baicalein glucuronide.[17] Thus, the corrected permeability was calculated from the total rate of drug transport and the glucuronide excretion rate of bidirectional side divided by the membrane area (A) of the monolayer and the initial concentration of baicalein at the loading side (C 0): (3) Pcorrected=dQ/dt+Aex+Bex/AC0 (4) […] - BL Where P appBL-AP is the apparent permeability coefficient when the sample is added on the basolateral side; […]-BL is the apparent permeability coefficient when the sample is added on the apical side.

Caco-2 cell monolayer = test: as above; type: in vitro ADME, human
Protocol: as §1

UGT1A9 = test: Enzyme activity assay, intestinal microsome incubation: baicalein glucuronidation to BG; type: in vitro ADME, human; conditions: BG formation (UGT1A9)
Protocol: (§2) In this experiment, the effect of PEG400 on the enzyme activities of UGT1A8 and UGT1A9 was evaluated by in vitro microsome incubation. The activity of UGT1A8 and UGT1A9 was determined by detecting the production of BG and B6G with B as substrate.
(§3) The incubation system contained 10 µl of 50 mM Tris‐HCl (pH 7.4) buffer, 10 µl of 5 mM MgCl2 solution, 10 µl of 0.2 mg/ml alamethicin (Aladdin Biochemical Technology), and 20 µl of intestinal microsomes (Xenotech). The incubation system was pre‐incubated on ice for 15 min prior to experiment. Then, added 20 µl baicalein (dissolved in 50 mM Tris‐HCl) and PEG400 (20 µl) or 50 mM Tris‐HCl (20 µl) to the incubation system. The reaction was initiated by adding 5 mM UDPGA (10 µl) and incubated at 37°C for 15 min. The whole reaction was operated in a 1.5 ml centrifuge tube. Finally, the reaction was terminated by adding cold acetonitrile (100 µl) containing the genistein (IS). All solutions were thoroughly mixed for 3 min, then the mixture was centrifuged at 4°C at 16,000g for 15 min to precipitate the proteins completely. The supernatant was transferred and 10 µl was injected into the UPLC‐MS/MS system.
(§4) Kinetics parameters were obtained by fitting the data with Michaelis‐Menten equation (Equation 5) using […] GraphPad Prism® 9. (5) v=Vmax×s/Km+s where v (nmol/min/mg) is the velocity of metabolite formation, V max (nmol/min/mg) is the maximum velocity, K m (µM) is the Michaelis constant defined as the substrate concentration at half of V max, [S] (µM) is the substrate concentration

UGT1A8 = test: Enzyme activity assay, intestinal microsome incubation: baicalein glucuronidation to B6G; type: in vitro ADME, human
Protocol: as §2, §3, §4

[2] = B6G formation (UGT1A8), 0.25% PEG400
[3] = B6G formation (UGT1A8), 0.5% PEG400
[4] = B6G formation (UGT1A8), 1% PEG400
[5] = B6G formation (UGT1A8), Control

O=c1cc(-c2ccccc2)oc2cc(O)c(O)c(O)c12 [B, baicalein]
Stability (percentage remaining) (Stability study in HBSS; 150 ng ml^−1): 98.11 ± 3.85%
Stability (percentage remaining) (Stability study in HBSS; 300 ng ml^−1): 99.70 ± 5.23%
Stability (percentage remaining) (Stability study in HBSS; 600 ng ml^−1): 98.43 ± 7.23%
Papp at 120 min, 10 μM ([1]; Caco-2, 10 μM B loaded on AP side, 0.25% 1% PEG400 group): 99.7 ×10⁻⁶ cm/s
Papp at 120 min, 10 μM ([1]; Caco-2, 10 μM B loaded on AP side, 0.25% PEG400 group): 100 ×10⁻⁶ cm/s
Papp at 120 min, 10 μM ([1]; Caco-2, 10 μM B loaded on AP side, 0.5% PEG400 group): 94.7 ×10⁻⁶ cm/s
Papp at 120 min, 5 μM ([1]; Caco-2, AP-BL): 73.2 ×10⁻⁶ cm/s
Papp at 120 min, 10 μM ([1]; Caco-2, AP-BL, baicalein 10 μM): 78.4 ×10⁻⁶ cm/s
Papp at 120 min, 15 μM ([1]; Caco-2, AP-BL): 53.5 ×10⁻⁶ cm/s
Papp at 120 min, 10 μM ([1]; Caco-2, BL-AP, 10 μM B, 0.25% PEG400 group): 186 ×10⁻⁶ cm/s
Papp at 120 min, 10 μM ([1]; Caco-2, BL-AP, 10 μM B, 0.5% PEG400 group): 159 ×10⁻⁶ cm/s
Papp at 120 min, 10 μM ([1]; Caco-2, BL-AP, 10 μM B, 1% PEG400 group): 135 ×10⁻⁶ cm/s
Papp at 120 min, 5 μM ([1]; Caco-2, BL-AP): 120 ×10⁻⁶ cm/s
Papp at 120 min, 10 μM ([1]; Caco-2, BL-AP, baicalein 10 μM): 163 ×10⁻⁶ cm/s
Papp at 120 min, 15 μM ([1]; Caco-2, BL-AP): 105 ×10⁻⁶ cm/s
permeation within 2 h compared with the control group (Caco-2 cell monolayer; AL-BL experiment, baicalein 10 μM loaded with 0.5% (v/v) PEG400): significantly decreased
penetration within 2 h compared with the control group (Caco-2 cell monolayer; BL-AP experiment, baicalein 10 μM loaded with 0.5% (v/v) PEG): decreased significantly
K m (UGT1A9; 0.25% PEG400): 14.34 ± 1.92 µM
K m (UGT1A9; 0.25% PEG400, listed as baicalein): 14.34 ± 1.92 µM
K m (UGT1A9; 0.5% PEG400): 18.26 ± 3.61 µM
K m (UGT1A9; 1% PEG400): 28.30 ± 3.33 µM
K m (UGT1A9; 1% PEG400, listed as baicalein): 28.30 ± 3.33 µM
K m (UGT1A9; Control): 22.05 ± 3.74 µM
K m (UGT1A8; [2]): 28.44 ± 8.34 µM
V max (UGT1A8; [2]): 4.54 ± 0.40 nmol/min/mg protein
K m (UGT1A8; B6G formation (UGT1A8), 0.25% PEG400, listed as baicalein): 28.44 ± 8.34 µM
K m (UGT1A8; [3]): 38.86 ± 3.76 µM
V max (UGT1A8; [3]): 6.68 ± 0.29 nmol/min/mg protein
K m (UGT1A8; [4]): 194.73 ± 48.82 µM
V max (UGT1A8; [4]): 24.78 ± 4.67 nmol/min/mg protein
K m (UGT1A8; B6G formation (UGT1A8), 1% PEG400, listed as baicalein): 194.73 ± 48.82 µM
K m (UGT1A8; [5]): 43.33 ± 2.63 µM
V max (UGT1A8; [5]): 4.64 ± 0.11 nmol/min/mg protein
V max (UGT1A8; UGT1A8, 0.25%PEG400): 4.54 ± 0.4 nmol/min/mg
V max (UGT1A8; UGT1A8, 0.5% PEG400): 6.68 ± 0.29 nmol/min/mg
V max (UGT1A8; UGT1A8, 1% PEG400): 24.8 ± 4.67 nmol/min/mg
V max (UGT1A8; UGT1A8, no PEG400): 4.64 ± 0.11 nmol/min/mg
